Results: paper doi:10.1101/2023.10.03.560722, “Drug Discovery in Low Data Regimes: Leveraging a Computational Pipeline for the Discovery of Novel SARS-CoV-2 Nsp14-MTase Inhibitors” (bioRxiv, 2024)
Like-named read-outs stand apart in the source and are kept apart here.

Legend:
Assay in all cases: human MTase selectivity panel
Assay type in all cases: biochemical
[1] = target: T1, G9a (Homo sapiens, UniProt Q96KQ7)
T1 sequence (Q96KQ7 1-1210): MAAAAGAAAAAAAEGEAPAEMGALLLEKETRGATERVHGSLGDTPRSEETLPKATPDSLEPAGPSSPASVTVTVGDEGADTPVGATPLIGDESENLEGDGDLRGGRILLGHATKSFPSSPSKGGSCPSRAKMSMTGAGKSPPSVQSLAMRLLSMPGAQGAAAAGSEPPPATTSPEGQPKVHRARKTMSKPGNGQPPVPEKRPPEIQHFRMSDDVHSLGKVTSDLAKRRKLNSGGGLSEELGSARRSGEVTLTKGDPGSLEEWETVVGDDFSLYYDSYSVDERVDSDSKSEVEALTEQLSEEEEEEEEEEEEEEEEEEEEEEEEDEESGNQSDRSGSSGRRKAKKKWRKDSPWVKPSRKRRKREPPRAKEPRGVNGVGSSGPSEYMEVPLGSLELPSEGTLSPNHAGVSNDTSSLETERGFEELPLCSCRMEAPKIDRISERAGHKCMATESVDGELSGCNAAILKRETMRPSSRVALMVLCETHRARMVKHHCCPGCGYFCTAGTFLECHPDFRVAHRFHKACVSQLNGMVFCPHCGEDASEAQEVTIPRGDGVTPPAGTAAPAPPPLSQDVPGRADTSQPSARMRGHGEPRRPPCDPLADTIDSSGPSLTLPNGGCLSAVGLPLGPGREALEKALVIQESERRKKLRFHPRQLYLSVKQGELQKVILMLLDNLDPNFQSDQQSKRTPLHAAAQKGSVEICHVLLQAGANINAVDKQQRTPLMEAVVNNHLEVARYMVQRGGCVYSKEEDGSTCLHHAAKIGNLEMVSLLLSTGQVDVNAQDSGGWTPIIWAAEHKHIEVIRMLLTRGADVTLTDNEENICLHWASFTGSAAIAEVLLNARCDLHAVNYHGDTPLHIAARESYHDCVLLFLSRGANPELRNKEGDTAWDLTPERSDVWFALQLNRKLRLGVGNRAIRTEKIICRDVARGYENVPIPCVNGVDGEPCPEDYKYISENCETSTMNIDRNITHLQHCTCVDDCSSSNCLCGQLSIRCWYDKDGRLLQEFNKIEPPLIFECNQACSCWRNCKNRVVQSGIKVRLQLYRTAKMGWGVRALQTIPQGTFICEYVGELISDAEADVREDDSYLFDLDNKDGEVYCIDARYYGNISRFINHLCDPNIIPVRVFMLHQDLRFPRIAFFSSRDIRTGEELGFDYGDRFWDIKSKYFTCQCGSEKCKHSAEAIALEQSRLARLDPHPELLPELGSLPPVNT

[2] = target: PRMT1 (Homo sapiens, UniProt Q99873)
[3] = target: PRDM9 (Homo sapiens, UniProt Q9NQV7)
[4] = target: T2, SETD7 (Homo sapiens, UniProt Q8WTS6)
T2 sequence (Q8WTS6 1-366): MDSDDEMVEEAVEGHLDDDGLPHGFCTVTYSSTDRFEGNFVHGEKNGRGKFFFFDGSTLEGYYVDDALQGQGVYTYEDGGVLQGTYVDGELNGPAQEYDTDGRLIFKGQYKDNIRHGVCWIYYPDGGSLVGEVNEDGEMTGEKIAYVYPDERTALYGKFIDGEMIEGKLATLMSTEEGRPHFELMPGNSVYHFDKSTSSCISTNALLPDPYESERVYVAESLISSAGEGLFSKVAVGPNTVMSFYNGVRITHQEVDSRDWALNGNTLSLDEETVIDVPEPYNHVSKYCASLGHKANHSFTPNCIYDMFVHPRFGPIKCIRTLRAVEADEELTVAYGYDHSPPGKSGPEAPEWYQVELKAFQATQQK

[5] = target: SMYD2 (Homo sapiens, UniProt Q9NRG4)
[6] = target: MLL1 (Homo sapiens, UniProt Q03164)
[7] = target: MLL3 (Homo sapiens, UniProt Q8NEZ4)
[8] = average ± SD, read-out: Activity (%) at 10 µM Average
[9] = read-out: Activity (%) at 10 µM Replicate 1
[10] = read-out: Activity (%) at 10 µM Replicate 2
[11] = read-out: Activity (%) at 10 µM Replicate 3

MLL1, sequence (Q9UBL3 whole entry): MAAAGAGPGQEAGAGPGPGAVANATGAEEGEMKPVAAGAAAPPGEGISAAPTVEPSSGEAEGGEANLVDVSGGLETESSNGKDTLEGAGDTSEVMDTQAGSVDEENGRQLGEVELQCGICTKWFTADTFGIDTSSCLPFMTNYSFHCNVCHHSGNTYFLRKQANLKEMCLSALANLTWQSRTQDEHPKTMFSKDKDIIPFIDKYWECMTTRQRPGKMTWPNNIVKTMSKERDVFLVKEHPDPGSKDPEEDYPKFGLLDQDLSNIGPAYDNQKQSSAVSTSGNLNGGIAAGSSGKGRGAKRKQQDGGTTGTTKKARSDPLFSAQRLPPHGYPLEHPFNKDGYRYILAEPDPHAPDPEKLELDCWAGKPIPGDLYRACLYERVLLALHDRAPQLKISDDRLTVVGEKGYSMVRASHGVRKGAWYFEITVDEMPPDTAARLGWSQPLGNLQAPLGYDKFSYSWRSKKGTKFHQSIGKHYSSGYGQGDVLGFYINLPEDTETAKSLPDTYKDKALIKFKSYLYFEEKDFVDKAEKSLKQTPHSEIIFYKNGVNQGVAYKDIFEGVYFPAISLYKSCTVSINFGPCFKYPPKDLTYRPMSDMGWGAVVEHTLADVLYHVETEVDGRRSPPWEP
MLL1, sequence (Q15291 whole entry, further chain): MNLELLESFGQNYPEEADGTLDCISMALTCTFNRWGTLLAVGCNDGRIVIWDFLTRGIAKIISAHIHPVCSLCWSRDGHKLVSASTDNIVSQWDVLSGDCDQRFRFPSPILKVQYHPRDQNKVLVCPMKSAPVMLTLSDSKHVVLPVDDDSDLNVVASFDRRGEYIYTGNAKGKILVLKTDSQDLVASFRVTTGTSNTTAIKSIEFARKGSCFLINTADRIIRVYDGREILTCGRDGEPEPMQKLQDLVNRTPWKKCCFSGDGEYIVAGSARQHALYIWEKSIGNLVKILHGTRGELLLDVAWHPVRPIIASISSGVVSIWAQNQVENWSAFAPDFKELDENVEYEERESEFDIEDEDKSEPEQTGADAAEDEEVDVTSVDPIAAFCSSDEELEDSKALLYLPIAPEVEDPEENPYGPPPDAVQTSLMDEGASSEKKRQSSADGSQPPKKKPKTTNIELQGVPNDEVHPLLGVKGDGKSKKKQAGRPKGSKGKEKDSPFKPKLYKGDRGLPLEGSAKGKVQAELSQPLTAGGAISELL
MLL1, sequence (Q03164 3745-3969): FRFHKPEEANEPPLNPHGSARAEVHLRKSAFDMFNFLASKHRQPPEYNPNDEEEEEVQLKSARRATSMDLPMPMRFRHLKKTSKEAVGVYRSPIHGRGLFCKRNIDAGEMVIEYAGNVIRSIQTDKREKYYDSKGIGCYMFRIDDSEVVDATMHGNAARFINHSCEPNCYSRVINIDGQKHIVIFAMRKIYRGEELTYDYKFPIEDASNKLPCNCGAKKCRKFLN
PRMT1, sequence (Q99873 whole entry): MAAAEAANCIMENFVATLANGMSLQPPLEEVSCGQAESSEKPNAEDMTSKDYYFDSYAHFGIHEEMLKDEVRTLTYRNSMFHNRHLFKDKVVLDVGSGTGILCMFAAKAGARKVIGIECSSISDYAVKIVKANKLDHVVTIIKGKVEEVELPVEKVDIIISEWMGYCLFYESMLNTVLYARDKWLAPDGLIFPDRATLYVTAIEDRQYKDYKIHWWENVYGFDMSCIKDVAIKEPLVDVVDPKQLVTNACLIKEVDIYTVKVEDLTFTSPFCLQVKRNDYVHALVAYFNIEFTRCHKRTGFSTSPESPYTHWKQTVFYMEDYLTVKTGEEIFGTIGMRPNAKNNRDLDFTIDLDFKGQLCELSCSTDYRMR
SMYD2, sequence (Q9NRG4 whole entry): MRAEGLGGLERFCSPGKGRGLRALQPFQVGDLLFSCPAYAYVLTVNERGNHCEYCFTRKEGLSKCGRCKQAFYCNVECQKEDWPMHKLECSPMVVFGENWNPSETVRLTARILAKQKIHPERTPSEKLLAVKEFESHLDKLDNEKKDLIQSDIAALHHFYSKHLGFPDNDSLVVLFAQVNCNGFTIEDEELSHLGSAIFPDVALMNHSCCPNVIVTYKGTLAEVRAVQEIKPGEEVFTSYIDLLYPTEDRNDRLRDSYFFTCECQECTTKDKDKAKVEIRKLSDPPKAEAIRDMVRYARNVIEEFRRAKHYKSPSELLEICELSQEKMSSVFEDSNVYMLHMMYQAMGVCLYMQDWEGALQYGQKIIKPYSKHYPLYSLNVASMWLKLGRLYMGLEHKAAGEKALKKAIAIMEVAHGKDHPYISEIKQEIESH
PRDM9, sequence (Q9NQV7 whole entry): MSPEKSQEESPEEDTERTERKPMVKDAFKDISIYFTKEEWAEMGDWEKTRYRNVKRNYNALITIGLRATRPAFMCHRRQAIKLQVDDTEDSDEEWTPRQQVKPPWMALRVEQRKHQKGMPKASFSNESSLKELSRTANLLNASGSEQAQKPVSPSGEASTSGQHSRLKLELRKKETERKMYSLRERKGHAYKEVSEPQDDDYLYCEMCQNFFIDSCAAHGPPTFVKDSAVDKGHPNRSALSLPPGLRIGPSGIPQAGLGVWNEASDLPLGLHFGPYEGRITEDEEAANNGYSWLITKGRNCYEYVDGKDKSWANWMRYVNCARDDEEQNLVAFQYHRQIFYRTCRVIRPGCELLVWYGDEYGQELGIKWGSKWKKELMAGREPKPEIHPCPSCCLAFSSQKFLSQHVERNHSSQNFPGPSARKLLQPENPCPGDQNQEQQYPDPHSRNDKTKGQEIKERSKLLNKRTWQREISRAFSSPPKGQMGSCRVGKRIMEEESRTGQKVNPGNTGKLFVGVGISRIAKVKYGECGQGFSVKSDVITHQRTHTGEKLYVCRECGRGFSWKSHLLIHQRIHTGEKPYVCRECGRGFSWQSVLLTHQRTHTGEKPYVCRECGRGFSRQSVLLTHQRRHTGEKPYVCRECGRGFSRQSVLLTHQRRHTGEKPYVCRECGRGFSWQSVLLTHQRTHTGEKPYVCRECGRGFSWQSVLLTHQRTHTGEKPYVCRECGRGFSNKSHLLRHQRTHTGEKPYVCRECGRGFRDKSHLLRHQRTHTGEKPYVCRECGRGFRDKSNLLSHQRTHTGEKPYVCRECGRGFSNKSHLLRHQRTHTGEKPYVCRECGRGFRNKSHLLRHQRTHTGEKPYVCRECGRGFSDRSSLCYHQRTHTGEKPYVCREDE

Nc1ncnc2c1ncn2[C@@H]1O[C@H](CSCc2ccc(Cl)cc2)[C@@H](O)[C@H]1O [NSC620333]
activity at 10 µM [1, 8]: 89 ± 9%
activity at 10 µM [1, 9]: 97%
activity at 10 µM [1, 10]: 79%
activity at 10 µM [1, 11]: 91%
activity at 10 µM [2, 8]: 91 ± 6%
activity at 10 µM [2, 9]: 97%
activity at 10 µM [2, 10]: 94%
activity at 10 µM [2, 11]: 84%
activity at 10 µM [3, 8]: 106 ± 3%
activity at 10 µM [3, 9]: 110%
activity at 10 µM [3, 10]: 105%
activity at 10 µM [3, 11]: 104%
activity at 10 µM [4, 8]: 87 ± 1%
activity at 10 µM [4, 9]: 85%
activity at 10 µM [4, 10]: 88%
activity at 10 µM [4, 11]: 87%
activity at 10 µM [5, 8]: 105 ± 8%
activity at 10 µM [5, 9]: 104%
activity at 10 µM [5, 10]: 114%
activity at 10 µM [5, 11]: 99%
activity at 10 µM [6, 8]: 85 ± 2%
activity at 10 µM [6, 9]: 84%
activity at 10 µM [6, 10]: 87%
activity at 10 µM [6, 11]: 84%
activity at 10 µM [7, 8]: 51 ± 6%
activity at 10 µM [7, 9]: 44%
activity at 10 µM [7, 10]: 57%
activity at 10 µM [7, 11]: 53%
